Among the test systems are M14 melanoma; SK-MEL-2 melanoma; RPMI-8226 leukemia; HOP-62 NSCLC; MDA-N; 786-0 renal; RXF 393 renal; NCI-H23 lung; UACC-257 melanoma; MALME-3M melanoma.
Common to all, as to experiment: NCI tumour cell line growth inhibition, 48 h

Molecules are shown by their SMILES.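 96-well plates; 48 h exposure; 5 concentrations. Endpoints by linear interpolation between flanking doses. Not reached: highest tested concentration assigned. At the TGI there is no net growth.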

In the case of `CN(C)c1ccc(C2SCC(=O)N2NS(=O)(=O)c2cccc(C(=O)O)c2)cc1` (centres undefined), the TGI in the test on M14 melanoma was > 100 µM; in the test with SK-MEL-2 melanoma it was > 100 µM; in the test on RPMI-8226 leukemia, > 100 µM; with HOP-62 NSCLC it was > 100 µM; in the test with MDA-N, > 100 µM; in the test with 786-0 renal, 31 µM. For the same molecule, the TGI in the test with RXF 393 renal, with NCI-H23 lung, with UACC-257 melanoma and in the test with MALME-3M melanoma was > 100 µM in each case.
Consider `O=C1c2ccccc2-c2nc(-c3cccc([N+](=O)[O-])c3)nnc21`, for which the TGI is 73.2 µM in the test with M14 melanoma; 49.2 µM in the test on SK-MEL-2 melanoma; > 100 µM with RPMI-8226 leukemia; 5.49 µM in the test with MDA-N; > 100 µM in the test with 786-0 renal; > 100 µM with RXF 393 renal. Further, the TGI amounted to 50.5 µM in the test on NCI-H23 lung, 13.3 µM in the test with UACC-257 melanoma and 38.4 µM with MALME-3M melanoma.
Consider `C=C1C(=O)CC2C(=O)C(C)(O)CC/C=C(\C)C(=O)CC12` (centres undefined), for which the TGI with M14 melanoma was 31 µM; in the test with SK-MEL-2 melanoma it was > 82.9 µM; in the test with RPMI-8226 leukemia it was 82.9 µM; in the test with HOP-62 NSCLC, > 100 µM; in the test on MDA-N, 37.1 µM; in the test with 786-0 renal it was 35.6 µM. For the same molecule, the TGI amounted to 40.3 µM in the test on RXF 393 renal, 45.7 µM in the test with NCI-H23 lung, 55.5 µM in the test on UACC-257 melanoma and 27.1 µM in the test with MALME-3M melanoma.
As to `Cc1ccc2c(=O)cc(-c3cccs3)[nH]c2n1`, the TGI with M14 melanoma was > 100 µM; in the test with SK-MEL-2 melanoma, > 82.7 µM; with RPMI-8226 leukemia, > 49.4 µM; in the test with HOP-62 NSCLC it was > 100 µM; in the test with MDA-N it was 3.78 µM; in the test on 786-0 renal it was > 100 µM. The TGI in the test on RXF 393 renal is > 62.6 µM; with NCI-H23 lung, > 63.6 µM; with UACC-257 melanoma, > 100 µM; in the test with MALME-3M melanoma, > 100 µM.
Turning to `CC1Cn2c(nc3ccccc32)NC1=O` (centres undefined), the TGI in the test on M14 melanoma, in the test with SK-MEL-2 melanoma, in the test on RPMI-8226 leukemia, in the test with HOP-62 NSCLC, with MDA-N and with 786-0 renal was > 100 µM each time. Also, the TGI in the test with RXF 393 renal, with NCI-H23 lung, in the test on UACC-257 melanoma and in the test on MALME-3M melanoma was > 100 µM each time.
Regarding `CCC1(C)N=C(c2cnccn2)NN1c1ccc(Cl)cc1` (centres undefined), the TGI with M14 melanoma, in the test with SK-MEL-2 melanoma, in the test with RPMI-8226 leukemia, in the test with HOP-62 NSCLC, in the test on MDA-N and with 786-0 renal was > 100 µM each time. Moreover, the TGI is > 100 µM with RXF 393 renal, > 100 µM with NCI-H23 lung, 99.3 µM in the test with UACC-257 melanoma and > 100 µM with MALME-3M melanoma.
Take `Cc1ccc(-c2cc(N)n(-c3nc4c(c(=O)n(C)c(=O)n4C)n3C)n2)cc1`: the TGI is > 100 µM in the test on M14 melanoma; > 100 µM in the test with SK-MEL-2 melanoma; > 100 µM in the test with RPMI-8226 leukemia; 63.9 µM in the test on HOP-62 NSCLC; > 100 µM with MDA-N; > 100 µM in the test on 786-0 renal. The TGI with RXF 393 renal, in the test on NCI-H23 lung, with UACC-257 melanoma and in the test with MALME-3M melanoma was > 100 µM each time.
As for `Nc1cccc(Nc2nc3ccccc3nc2NS(=O)(=O)c2ccccc2)c1`, the TGI in the test on M14 melanoma is 71.8 µM; with SK-MEL-2 melanoma it was 31.3 µM; with RPMI-8226 leukemia it was 52.5 µM; with HOP-62 NSCLC, 96.2 µM; in the test with MDA-N, > 100 µM; in the test with 786-0 renal it was > 100 µM. The TGI in the test with RXF 393 renal was 38.7 µM; with NCI-H23 lung, 42.6 µM; in the test with UACC-257 melanoma, > 100 µM; with MALME-3M melanoma, 72.7 µM.
Turning to `COc1ccc(Nc2nc(NS(=O)(=O)c3cc(C)c(Cl)cc3S)n[nH]2)cc1`, the TGI in the test with M14 melanoma, in the test with SK-MEL-2 melanoma, with RPMI-8226 leukemia, in the test on HOP-62 NSCLC, in the test with MDA-N and with 786-0 renal was > 100 µM in each case. Moreover, the TGI with RXF 393 renal, in the test with NCI-H23 lung, in the test with UACC-257 melanoma and in the test on MALME-3M melanoma was > 100 µM in each case.
Take `CN(NC(=O)c1cccs1)C1=NCCCN1`: the TGI in the test with M14 melanoma, with SK-MEL-2 melanoma, with RPMI-8226 leukemia, in the test with HOP-62 NSCLC, in the test on MDA-N and in the test with 786-0 renal was > 100 µM each time. For the same molecule, the TGI with RXF 393 renal, in the test with NCI-H23 lung, with UACC-257 melanoma and in the test with MALME-3M melanoma was > 100 µM each time.
In the case of `CCCCCC(=O)NC(=S)Nc1nn[nH]n1`, the TGI in the test with M14 melanoma, in the test with SK-MEL-2 melanoma, with RPMI-8226 leukemia, in the test with HOP-62 NSCLC, in the test on MDA-N and with 786-0 renal was > 100 µM throughout. Further, the TGI in the test on RXF 393 renal, in the test on NCI-H23 lung, in the test on UACC-257 melanoma and in the test with MALME-3M melanoma was > 100 µM in each case.
In the case of `CCC(C#N)NC(=O)NC(C#N)CC` (centres undefined), the TGI in the test with M14 melanoma, with SK-MEL-2 melanoma, with RPMI-8226 leukemia, in the test with HOP-62 NSCLC, with MDA-N and in the test on 786-0 renal was > 100 µM throughout. Also, the TGI in the test with RXF 393 renal, in the test on NCI-H23 lung, in the test with UACC-257 melanoma and in the test on MALME-3M melanoma was > 100 µM in each case.
`Cc1ccc(S(=O)(=O)OCC(=O)O)cc1`: the TGI with M14 melanoma, in the test on SK-MEL-2 melanoma, in the test with RPMI-8226 leukemia, in the test with HOP-62 NSCLC, in the test on MDA-N and with 786-0 renal was > 100 µM in each case. Besides, the TGI with RXF 393 renal, in the test on NCI-H23 lung, in the test on UACC-257 melanoma and with MALME-3M melanoma was > 100 µM in each case.
With `O=C(NCCCCCCNCc1cccc2ccccc12)Nc1cccc2ccccc12`, the TGI in the test on M14 melanoma, in the test with SK-MEL-2 melanoma, in the test with RPMI-8226 leukemia, with HOP-62 NSCLC, with MDA-N and in the test on 786-0 renal was > 100 µM in each case. The TGI with RXF 393 renal, in the test with NCI-H23 lung, in the test on UACC-257 melanoma and in the test with MALME-3M melanoma was > 100 µM each time.

(Values after PubChem BioAssay (NCI).)
